In patent publication US8865967B2 (priority 2010, dated 2014):

Tested on: Colletotrichum graminicola (CGR; isolate Carroll-IA-99)
Assay type: cell-based
Conditions: in words, variant after one round of DNA shuffling

## Pp-PDF1-1C-7A4: Pp-PDF1 variant from first shuffling round (RVCEKPSKFFKGLCGSDRDCTNACRKEGLATGECQSKGFFNSVCVCKKPC; Synthetic sequence obtained from DNA shuffling of a plant sequence.)
  in vitro inhibitory activity against Colletotrichum graminicola: significantly improved
